These results are taken from ChEMBL document CHEMBL1806405, “Internalization of a C17α-alkynylestradiol-porphyrin conjugate into estrogen receptor positive MCF-7 breast cancer cells” (Bioorg Med Chem Lett, 2011).

Calls of active or inactive are those of the source. The rule behind the calls is not given here.

The target of the experiment is T1, Estrogen receptor (Homo sapiens) (UniProt P03372).
T1 sequence (whole entry): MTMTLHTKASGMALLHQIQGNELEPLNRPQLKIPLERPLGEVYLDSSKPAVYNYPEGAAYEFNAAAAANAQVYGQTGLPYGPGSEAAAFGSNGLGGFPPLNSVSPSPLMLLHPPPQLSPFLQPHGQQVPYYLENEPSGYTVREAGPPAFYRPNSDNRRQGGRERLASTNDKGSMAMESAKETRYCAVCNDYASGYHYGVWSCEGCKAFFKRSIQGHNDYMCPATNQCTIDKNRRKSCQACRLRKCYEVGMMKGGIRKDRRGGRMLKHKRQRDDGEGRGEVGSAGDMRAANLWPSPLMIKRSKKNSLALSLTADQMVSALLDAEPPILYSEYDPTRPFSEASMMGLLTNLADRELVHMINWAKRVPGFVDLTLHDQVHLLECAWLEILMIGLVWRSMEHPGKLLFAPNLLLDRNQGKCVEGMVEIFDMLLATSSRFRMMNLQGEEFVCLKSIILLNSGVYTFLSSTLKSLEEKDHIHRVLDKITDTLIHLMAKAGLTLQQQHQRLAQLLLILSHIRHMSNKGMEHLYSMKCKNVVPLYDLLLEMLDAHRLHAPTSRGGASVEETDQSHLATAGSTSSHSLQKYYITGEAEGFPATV
Put plainly: Induction of estrogen receptor-mediated compound internalization in human MCF-7 cells at 10 umol by fluorescence microscopy. As to conditions: MCF7. The experiment is classed as cell-based.

Consider `C=CC1=C(C)c2cc3[nH]c(c4c5nc(cc6[nH]c(cc1n2)c(C)c6CC)C(C)=C5C(=O)C4)[C@@H](CCC(=O)O)[C@@H]3C`, for which the outcome was inactive.
Take `C=CC1=C(C)c2cc3[nH]c(c4c5nc(cc6[nH]c(cc1n2)c(C)c6CC)C(C)=C5C(=O)C4)[C@@H](CCC(=O)OCCC#C[C@]1(O)CC[C@H]2[C@@H]4CCc5cc(O)ccc5[C@H]4CC[C@@]21C)[C@@H]3C`: the result was Active.
